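Briefly, cells in 96-well plates were exposed to five compound concentrations for 48 h, and endpoints were estimated by linear interpolation. GI50 = concentration required for 50% inhibition of growth. TGI: total growth inhibition.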 Where a SMILES comes first, the peptide text is derived from it. [ ]: non-standard residue; d: D form. Phe(ol) = N[C@H](CO)Cc1ccccc1; dIva = CC[C@@](C)(N)C(=O)O; Aib = CC(C)(N)C(=O)O Where only a bound is given, the exact number is not on record here.

The values below come from PubChem BioAssay (NCI).

The assay deals with MDA-MB-468 breast. Description: NCI anticancer screen, dose series, 48 h.

For `CN1CCC2(CC1)N=C(SCC(=O)Nc1cnc3ccccc3c1)C(c1ccc(Br)cc1)=N2`, the GI50 was 1.76 µM and the TGI was 3.5 µM.

In the case of `C/C=C/c1cc2c(cc1O)CC[C@@H]1[C@@H]2CC[C@]2(C)[C@@H](O)CC[C@@H]12`, the GI50 is 2.99 µM and the TGI was found to be 17.1 µM.

Regarding `CN1CCN(CCCNC(=O)c2c3c(n4ccccc24)C(=O)c2ncccc2C3=O)CC1`, the GI50 is 0.637 µM and the TGI was determined as 1.86 µM.

In the case of `NC(=O)c1c(NC(=O)c2cccs2)sc2c1CCC(=O)C2`, the GI50 is 2.58 µM and the TGI came out at 8.77 µM.

On to `C=C1C(=O)O[C@H]2[C@H]1CC/C(COC(=O)c1cccnc1N)=C\CC[C@@]1(C)O[C@@H]21`, for which the GI50 was 0.958 µM and the TGI came out at 4.18 µM.

Turning to `C=CCn1c2ccccc2c2c3c(c4c5ccccc5n(CC=C)c4c21)C(=O)N(O)C3=O`, the GI50 is 3.88 µM and the TGI turned out to be 41.9 µM.

Consider `COc1ccc(Cn2cc(COc3cc(/C=C/C(=O)c4cc(OC)c(OC)c(OC)c4)ccc3OC)nn2)cc1`, for which the GI50 was 2.05 µM and the TGI stood at 7 µM.

For the molecule `COC(=O)c1c[nH]c2cc(OC(C)C)c(OC(C)C)cc2c1=O`, the GI50 is more than 100 µM and the TGI is more than 100 µM.

With `COC(=O)[C@H](Cc1cn(C)cn1)NC(=O)[C@H](CC(=O)OCc1ccccc1)NC(=O)Nc1cc(C(F)(F)F)cc(C(F)(F)F)c1`, the GI50 is 2.1 µM and the TGI is 6.55 µM.

`COc1ccc(OC)c(Nc2nc3nonc3nc2Nc2cccc(Br)c2)c1`: the GI50 is 0.343 µM and the TGI turned out to be 3.88 µM.

As for `COc1cc(-c2nn(-c3ccc(NC(=O)Nc4cc(C(F)(F)F)cc(C(F)(F)F)c4)cc3)cc2-c2ccncc2)ccc1Cl`, the GI50 is 1.45 µM and the TGI came to 3.35 µM.

With `Cc1ccc(C[As+](c2ccccc2)(c2ccccc2)c2ccccc2)cc1`, the GI50 was 0.185 µM and the TGI is 1.08 µM.

`CCN(CC)C1Oc2cc3c(cc2C(c2cc(OC)c(O)c(OC)c2)C1C)OCO3` (configuration not stated): the GI50 was 11.6 µM and the TGI came to 70.7 µM.

As for `Oc1ccc2c(=S)cc(-c3ccc(Br)cc3)oc2c1O`, the GI50 was 2.08 µM and the TGI stood at 6.5 µM.

Take `CC[C@@H](C)/C=C(C)/C=C/C(=O)c1c(O)c(-c2ccc(OC(=O)[C@@]34CC[C@@](C)(C(=O)O3)C4(C)C)cc2)cn(O)c1=O`: the GI50 is 1.32 µM and the TGI is 10.8 µM.

Take `CC12OC(CC(O)C1O)n1c3ccccc3c3c4c(c5c6ccccc6n2c5c31)C(=O)N(CCN1CCOCC1)C4=O` (configuration not stated): the GI50 was 1.17 µM and the TGI amounted to 3.19 µM.

With `CCCCC(=O)N(c1ccc(Nc2c3ccccc3nc3cc([N+](=O)[O-])ccc23)cc1)S(C)(=O)=O`, the GI50 was 0.433 µM and the TGI came out at 5.7 µM.

Regarding `O=C(/C=C/c1ccccc1)c1cccc2ccccc12`, the GI50 was 2 µM and the TGI worked out at 5.64 µM.

Regarding `CC1=CC(=O)N(c2cccc3c(N4C(=O)C=C(C)C4=O)cccc23)C1=O`, the GI50 was 2.09 µM and the TGI was determined as 5.51 µM.

Consider `NCCCNc1nc2ccccc2c2c(=O)c3cc(F)ccc3sc12`, for which the GI50 was 1.2 µM and the TGI worked out at 2.59 µM.

For the molecule `CC[C@@](C)(NC(=O)C(C)(C)NC(=O)[C@@H](NC(=O)[C@@H]1CCCN1C(=O)C(C)(C)NC(=O)[C@H](CC(C)C)NC(=O)CNC(=O)C(C)(C)NC(=O)[C@@H](NC(=O)C(C)(C)NC(=O)[C@H](CCC(N)=O)NC(=O)[C@H](C)NC(=O)C(C)(C)NC(=O)[C@H](C)NC(=O)C(C)(C)NC(=O)[C@@H]1CCCN1C(=O)C(C)(C)NC(C)=O)C(C)C)C(C)C)C(=O)N[C@@H](CCC(N)=O)C(=O)N[C@@H](CCC(N)=O)C(=O)N[C@H](CO)Cc1ccccc1` (Ac-[Aib]P[Aib]A[Aib]AQ[Aib]V[Aib]GL[Aib]PV[Aib][dIva]QQ[Phe(ol)]), the GI50 was 0.867 µM and the TGI is 3.67 µM.

In the case of `Cc1sc(C(=O)c2cncnc2N[C@@H]2C[C@H](COS(N)(=O)=O)[C@@H](O)C2)cc1[C@@H]1NCCc2ccc(Cl)cc21`, the GI50 was 0.104 µM and the TGI was 14.8 µM.

In the case of `Brc1ccccc2cc(-c3ccccc3)nc1-2`, the GI50 was 4.7 µM and the TGI was more than 56.6 µM.

Turning to `O=C(O)CCC(c1ccccc1)(c1ccccc1)c1ccccc1`, the GI50 was 57.9 µM and the TGI was more than 100 µM.

For `O=C(Nc1nc(-c2ccc(Cl)cc2)cs1)c1cc(O)c(O)c(O)c1`, the GI50 is 213 µM and the TGI amounted to 2290 µM.

For `CN(C)c1ccc(/C=C(\C#N)c2cc3ccccc3[nH]2)cc1`, the GI50 is 0.373 µM and the TGI is 4.2 µM.

Take `COC(=O)[C@]12CC[C@@H](C)[C@H](C)[C@@H]1C1=CC[C@@H]3[C@@]4(C)C(C=O)=C[C@@](C)(CO)[C@@H]4[C@H](O)C[C@@]3(C)[C@]1(C)CC2`: the GI50 was 4.36 µM and the TGI worked out at 18.9 µM.

Turning to `O=C(Nc1ccncc1)C(=O)c1cn(S(=O)(=O)c2cccc(Cl)c2)c2ccccc12`, the GI50 is 0.763 µM and the TGI was 45.3 µM.

Consider `Cc1nc2sc(C(=O)Nc3cccc(Br)c3C)c(N)c2cc1C(O)c1ccccc1` (configuration not stated), for which the GI50 is 0.0398 µM and the TGI was found to be 26 µM.

As to `Cc1ccc(/C=N/NC(=O)c2ccccc2Oc2ccccc2)o1`, the GI50 is 19.6 µM and the TGI was found to be 65.7 µM.

Take `Cn1c(CCCC(=O)O)nc2cc(N(CCCl)CCCl)ccc21`: the GI50 was 17.1 µM and the TGI was more than 100 µM.

Regarding `O=C1/C(=C\c2ccc(F)cc2)CN(C(=O)c2ccccc2F)C/C1=C\c1ccc(F)cc1`, the GI50 was 1.51 µM and the TGI came to 3.4 µM.

For `O=C(Oc1ccccc1)N(c1ccccc1)c1ccccc1`, the GI50 was 24 µM and the TGI was found to be 87.7 µM.

As to `COc1cc2c(cc1OC)C(C(CCCCCC(CCC(C)C)C1NCCc3cc(OC)c(OC)cc31)CCC(C)C)NCC2` (configuration not stated), the GI50 is 0.588 µM and the TGI was found to be 1.25 µM.

Consider `COc1cc(C(=O)/C=C/c2cc(-c3ccc4c(c3)OCO4)n[nH]2)cc(OC)c1OC`, for which the GI50 is 1.4 µM and the TGI stood at 3.5 µM.

As to `COc1ccc2c(C3=C(c4cn(C)c5ccccc45)C(=O)NC3=O)coc2c1`, the GI50 was 0.278 µM and the TGI came to 3.48 µM.

Take `C=C1c2nc3ccccc3n2C=C(c2cccc(Cl)c2)N1Cc1ccc(OC)cc1`: the GI50 was 0.784 µM and the TGI turned out to be 17.2 µM.

Consider `c1ccc(-c2[nH]ncc2-c2ccnc(-c3ccc(OCCN4CCOCC4)cc3)c2)nc1`, for which the GI50 is more than 25 µM and the TGI is more than 25 µM.

For the molecule `Cn1ncc(C#N)c1-c1ccc2c(c1)CN([C@H](CN)Cc1cccc(F)c1)C2=O`, the GI50 was 0.105 µM and the TGI is 2.97 µM.

In the case of `C[C@@H](Nc1cc(F)cc(F)c1)c1cc(C(=O)N(C)C)cc2c(=O)cc(N3CCOCC3)oc12`, the GI50 was 0.692 µM and the TGI came to 13.1 µM.

With `C#C[C@@]1(O)[C@@H](CO)O[C@@H](n2cc(Br)c3c(Cl)ccnc32)[C@@H]1O`, the GI50 is 0.836 µM and the TGI is more than 31.6 µM.

As for `CCN1CCN(c2nc(C)cc(NCc3cc(Nc4ccnc5cc(Cl)ccc45)ccc3F)n2)CC1`, the GI50 was 1.55 µM and the TGI was found to be 3.51 µM.

In the case of `Cc1ccc(N)cc1[As]=[As]c1cc(N)ccc1C` (configuration not stated), the GI50 was 0.243 µM and the TGI is 0.944 µM.

As to `CCOc1cc(-c2nncn2C)ccc1Nc1ncc2cc(C)nc(NCC(C)(C)C)c2n1`, the GI50 was more than 20.2 µM and the TGI is more than 100 µM.

For the molecule `COc1cccc2c1C(=O)c1c(O)c3c(c(O)c1C2=O)C[C@@](O)(/C(CO)=N/NC(=O)CCCCCN1C(=O)C=CC1=O)C[C@@H]3O[C@H]1C[C@H](N)[C@H](O)[C@H](C)O1`, the GI50 was 0.438 µM and the TGI was found to be 2.75 µM.

Consider `CCc1nc(C)cn1C(=O)OCc1nc2nc(Cl)nc(N3CCOCC3)c2[nH]1`, for which the GI50 is 0.925 µM and the TGI worked out at 2.46 µM.
